How the values were obtained:
[1] = tested on: SW1 tumors; test: Flow cytometric profiling of tumors and lymph nodes, SW1 tumors in C3H/HeN mice fed ± L-fucose and treated ± FTY720 (Table 1); format: in vivo, mouse; details: for average # of CD8 stem central memory cells: tumors
Experimental: Tumors of SW1 or SM1 melanoma cells from […] or C57BL/6 mice, respectively) were digested using 1× tumor digest buffer (0.5 mg/mL Collagenase I, 0.5 mg/mL Collagenase IV, 0.25 mg/mL Hyalyronidase V, 0.1 mg/mL DNAse I in HBSS (Millipore Sigma (St. Louis, MO)). Tumors were homogenized using the Miltenyi MACs dissociator. Red blood cells were lysed using ACK lysis buffer (Life Technologies, (Grand Island, NY)). Tumor homogenate cells were counted using a standard hemocytometer.
Total TILs were gated first to single cells (based on forward scatter height vs width, followed by side scatter height vs. width). Live cells were gated from the Zombie negative population from the population above. TILs were gated based on splenocyte size from a control spleen. Individual immune subpopulations were sub-gated from the total TIL population using the following staining criteria: CD3^+ for CD3^+ T cells; CD3^+/CD4^+/CD8^− for CD4^+T cells; CD3^+/CD4^−/CD8^+ for CD8^+ T cells, CD11c^+/CD11b^+ for DCs; either NK1.1 (for C57/BL6 mice) or DX5 (for C3H/HeJ) for NK cells; CD11b^+/GR1^+ for MDSC-like cells; and F4/80^+ for macrophages. Single-cell suspensions from tumor and spleen tissue were stained with Live/Dead Zombie NIR (Biolegend, (San Diego, CA)) at 1:1,000 in PBS for 20 min. Cell suspensions were spun down and stained with the following with antibodies at 0.5 μg/ml per antibody: APC anti-mouse CD3, Pacific Blue anti-mouse CD4, BV785 anti-mouse CD8, PerCP anti-mouse CD25, FITC anti-mouse F4/80, PeCy7 anti-mouse CD11c, PE anti-mouse NK1.1 or PE anti-mouse DX5, and PerCP-Cy5.5 anti-mouse CD11b. After staining, the cells were washed and fixed (2% formaldehyde), followed by another wash and flow cytometric analysis. The compensation controls were prepared using 0.5 μg/mL of each antibody with UltraComp eBeads, (ThermoFisher Scientific (Waltham, MA)). All samples were subject to flow cytometric profiling using a LSR Flow Cytometer (BD Biosciences (San Jose, CA)) and analysis as indicated using FlowJo software (BD Biosciences (San Jose, CA)).
For all mouse models, 1×10^6 melanoma cells were injected subcutaneously in the right hind flanks of each mouse. […] This dosage is within ranges for dietary supplementation with L-fucose and other similar dietary sugars (e.g., D-mannose) in other rodent studies. When the tumors reached −2 cm^3, the animals were sacrificed, and the tumors either processed for flow cytometric profiling or for histological analysis as indicated.
Control vs. L-fucose±FTY720 models (FIG. 2): SW1 or SM1 mouse melanoma cells were injected into syngeneic C3H/HeN (or NSG) female or C57BL/6 male mice, respectively. Cells were injected as follows: parental SW1 cells for FIG. 1A; parental SM1 cells for FIG. 1E; SW1 cells stably expressing either empty vector (EV) or mouse fucose kinase (mFuk) for FIG. 1L; and parental SW1 cells for FIG. 1M. FTY720 was administered at 20 μg every 2 days starting on Day 12, just prior to the initiation of LF, until endpoint.

[2] = tested on: PD-L1; test: Flow cytometric assessment of cell surface PD-L1, human melanoma cells (WM793); format: cell-based
Experimental: Indicated cells were treated for 72 h with DMSO, 250 μM fucosyltransferase inhibitor (FUTi) (Millipore Sigma (St. Louis, MO)), or 250 μM of L-fucose (Biosynth (Oak Terrace, IL)). After 72 h, cells were stained with 0.1 μM PKH26 (Millipore Sigma (St. Louis, MO)) prior to fixation in 4% formaldehyde solution. The cells were stained with anti-HLA-DRB1 and fluorescein AAL, or anti-human or anti-mouse PD-L1 overnight. The following day the cells were washed 3 times prior to adding AlexaFluor 594 donkey anti-rabbit. Cells were washed 3 times and then subject to flow cytometric analyses using a FACSCalibur (BD Biosciences (San Jose, CA)). Samples were analyzed using FlowJo analysis software (BD Biosciences (San Jose, CA)). Median values of DRB1 and AAL were normalized to PKH26 values and statistical analysis was performed using GraphPad Prism.

[3] = tested on: breast tumors; test: Syngeneic breast tumor model, tumor growth and flow cytometry of immune cells; format: in vivo
From the text: We observed that L-fucose reduces tumor growth in breast cancer and enriches for CD11c+ cells.

[4] = tested on: BMMC; test: Flow cytometric DC polarization of BMMC; format: cell-based
Experimental: We next investigated the effect of L-fucose on dendritic cell differentiation. To test whether L-fucose affected immature or mature myeloid cells preferentially, BMMC were treated with L-fucose at various stages of development, pre=before maturation cocktail, concurrent=during maturation cocktail or post=after maturation cocktail (FIG. 23A). […] We next sought to determine if L-fucose equally affected subpopulations of DCs. By flow cytometric analysis we were able to determine that moDC are affected most by the modulation of fucosylation in immature myeloid cell populations.

[5] = tested on: moDCs; test: moDC dendrite length, phagocytosis (bead uptake) and Fitc-dextran uptake; format: cell-based
From the text: Our preliminary studies have begun to dissect and highlight moDC signaling changes induced by L-fuc treatment. Here, we present and discuss our novel findings on L-fuc-induced DC/moDC biology, the key mechanistic signaling changes that mediate these effects, and the important translational implications of these findings for efforts aimed at increasing/enhancing intratumoral DC function and anti-tumor immune responses.
Next we wanted to determine if L-fucose enhances the function phenotype of moDCs. […] Having determined that L-fucose alters the signaling of moDCs leading to an immunostimulatory phenotype, we next sought to identify other components of DC biology that are affected. To this end we examined L-fucose-treated mature dendritic cells for changes in (FIG. 26A) dendrite length and (FIG. 26B) phagocytosis by neutral bead uptake which may correlate with differential anti-tumor capacity in the TME.

With `C[C@H](O)[C@@H](O)[C@@H](O)[C@H](O)C=O` [L-fucose] the “average # of CD8 stem central memory cells” value ([1]; Day 28) was 0.00 per 10^6 cells, the “average # of CD8 stem central memory cells” value ([1]; Day 42) was 0.00 per 10^6 cells and the “intratumoral CD4+T central and effector memory subpopulations” value ([1]; SW1 model ± FTY720) was “increases”. For the same compound, the “cytotoxic CD4+T cells” value ([1]; midpoint (Day 28)) was “transiently but significantly increased”, the “intratumoral monocyte-derived DCs (moDCs) and lymph node cDC2s” value ([1]; oral L-fuc, SW1 model) was “significant, albeit transient, increases” and the “cell surface levels of PD-L1” value [2] was “does not alter”. The “CD11c+ cells in breast tumors” value ([3]; flow cytometry) was “enrichment of CD11c+ cells”, the breast tumor growth ([3]; syngeneic breast tumor model) was “dose-dependent tumor suppression” and the “polarization of myeloid cells (DC subpopulations)” value ([4]; flow cytometric analysis) was “polarizes myeloid cells towards a moDC phenotype”. The “absolute DC numbers” value ([4]; flow cytometric profiling of BMMCs) was “without affecting absolute DC numbers”, the “DC polarization of BMMC” value ([4]; treated pre, concurrent or post maturation cocktail) was “leads to DC polarization of BMMC at any stage of myeloid development” and the “dendrite length of moDCs” value [5] was “increased”. The “uptake of exogenous Fitc-dextran bait by L-fuc-induced moDCs” value ([5]; compared with untreated DCs) was “significantly increased rate” and the “phagocytosis of moDCs” value ([5]; neutral bead uptake) was “increased”.
